Assay results from patent US20260092114A1, “TREATMENT OF LUNG CANCER USING A COMBINATION OF AN ANTI-PD-1 ANTIBODY AND ANOTHER ANTI-CANCER AGENT” (Bristol-Myers Squibb Company, priority 2016, published 2026).
Like-named read-outs stand apart in the source and are kept apart here.

Tests used:
[1] = tested on: metastatic squamous cell NSCLC; details: cited from earlier work
[2] = tested on: NSCLC; details: cited from earlier work; for median OS with maintenance therapy: non-squamous NSCLC patients, maintenance after platinum doublet
[3] = CA184022 study of ipilimumab; assay type: in vivo, human
Procedure: Similarly, ipilimumab at 10 mg/kg has been safely administered over a 90 minute duration. In the CA184022 study, where ipilimumab was administered up to a dose of 10 mg/kg, on-study drug related hypersensitivity events (Grade 1-2) were reported in 1 (1.4%) subject in the 0.3 mg/kg and in 2 (2.8%) subjects in the 10 mg/kg group. […] Ipilimumab 10 mg/kg monotherapy has also been safely administered as 90 minute infusion in large phase 3 studies in prostate cancer (CA184043) and as adjuvant therapy for stage 3 melanoma (CA184029), with infusion reactions occurring in subjects. Administering 1 mg/kg of ipilimumab represents one-tenth of the 10 mg/kg dose.

[4] = tested on: chemotherapy-naive advanced NSCLC; experiment: CA209012 Phase 1 study, nivolumab monotherapy and nivolumab plus ipilimumab, first line; assay type: in vivo, human
Procedure: Nivolumab monotherapy at 3 mg/kg every 2 weeks has been evaluated in one of several cohorts of chemotherapy-naive patients with advanced NSCLC in study CA209012. Results from this cohort (n=52), including 13 subjects with squamous histology and 39 subjects with non-squamous histology, show an overall response rate (ORR) of 23% and a disease control rate (DCR) of 50%. The PFS rate at 24 weeks is 41%, with a median PFS of 16 weeks. The OS rate at 12 months is 74%, and the median overall survival (OS) is 22.6 months. The majority of responses have been durable, with the median duration of response not reached. In contrast, the median OS for patients with non-squamous histology who receive platinum doublet chemotherapy is 13 months, and for those with squamous histology is 10 months. (Ellis et al. J Clin Oncol (2014) 32:1277-1280.)
The nivolumab plus ipilimumab combination has been also evaluated at several different doses and schedules as first line therapy in patients with advanced NSCLC in CA209012, an ongoing Phase 1 study of nivolumab as monotherapy and in combination with a variety of agents. Early cohorts evaluated 2 different dosing schedules: nivolumab 1 mg/kg+ipilimumab 3 mg/kg, every 3 weeks for four cycles as induction, followed by nivolumab 3 mg/kg every 2 weeks; or nivolumab 3 mg/kg+ipilimumab 1 mg/kg, every 3 weeks for four cycles as induction, followed by nivolumab 3 mg/kg every 2 weeks.
Thus, a third combination cohort was initiated: nivolumab 1 mg/kg+ipilimumab 1 mg/kg every 3 weeks (“1+1”) for 4 cycles as induction, followed by nivolumab 3 mg/kg every 2 weeks as maintenance. This dosing regimen has been much better tolerated with only 13% of subjects experiencing treatment-related AEs leading to discontinuation. […] The ORR is 16%, and the DCR is 58%. The PFS rate at 24 weeks is 55% with a median PFS of 46.1 weeks. The OS rate at 12 months is 63%, and the median OS is not reached. Activity has been observed in patients with both PD-L1 positive (PD-L1+) and PD-L1 negative (PD-L1−) tumors. […]
Analyses based on archival specimens for subjects in CA209012 have shown that subjects with both PD-L1+(IHC greater than or equal to 5%) and PD-L1 tumors may benefit from treatment with nivolumab. […] However, the disease control rate (DCR, CR+PR+SD) was 54% for those with PD-L1+ tumors and 50% for those with PD-L1− tumors. […] Again there was less of a difference in the DCR between the 2 groups: 53% for those with PD-L1+ tumors and 51% for those with PD-L1− tumors. For subjects receiving nivolumab monotherapy, the PFS rate at 24 weeks was 40% and 45% for patients with PD-L1+ and PD-L1− tumors respectively; the median OS was 19.1 months in subjects with PD-L1+ tumors and not reached in subjects with PD-L1− tumors. For subjects receiving nivolumab plus ipilimumab, the median PFS was 21.7 weeks and 12.4 weeks in PD-L1+ and PD-L1− tumors respectively; the median OS was 21.5 months in subjects with PD-L1+ tumors and 19.4 months in subjects with PD-L1− tumors. […]

[5] = target: PD-1 (Homo sapiens, UniProt Q15116); set-up: endogenous in cells; details: across all doses 0.3 mg/kg to 10 mg/kg, 15 subjects; cited from earlier work
[6] = tested on: CMV specific memory T cells; experiment: CMV re-stimulation assay with human PBMC; assay type: cell-based; details: dose-dependent, versus isotype-matched control
From the text: (Topalian S L et al. N Eng J Med 2012; 366: 2443-54.)

[7] = tested on: previously treated NSCLC; details: cited from earlier work
[8] = nivolumab pharmacokinetics, population pharmacokinetic (PPK) analysis; assay type: in vivo, human; details: for Cavgss Geo. Mean / Cmaxss Geo. Mean / Cminss Geo. Mean: geometric mean (cv %)
Procedure: Nivolumab monotherapy has been studied in NSCLC patient population in studies CA209003, CA209063, CA209017, and CA209057 with body weight normalized dosing (mg/kg). Nivolumab pharmacokinetics (PK) and exposures of subjects in these studies have been characterized by population pharmacokinetic (PPK) analysis of data collected these studies, together with PK data from several phase 1, 2, and 3 clinical studies of nivolumab monotherapy in solid tumors. Nivolumab PK was determined to be linear, with dose proportional exposures over a dose range of 0.1 to 10 mg/kg. […] Conversely, given the relationship between nivolumab PK and body weight, a flat dose is expected to lead to lower exposures in heavier patients, relative to the exposures in lighter patients.
Table 3 presents summary statistics of the estimated nivolumab steady-state trough, peak and time-averaged concentration (Cminss, Cmaxss, and Cavgss, respectively) in NSCLC subjects receiving 3 mg/kg, together with corresponding statistics of exposures predicted for a flat nivolumab dose of 240 mg. It should be noted that a dose of 240 mg nivolumab is identical to a dose of 3 mg/kg for subjects weighing 80 kg, which is the approximate median body weight of NSCLC subjects in the 3 phase 2 and 3 clinical studies of nivolumab monotherapy in NSCLC patients (CA209017, CA209057, and CA209063).

[9] = nivolumab monotherapy tolerability across clinical studies; assay type: in vivo
[10] = tested on: second line or later NSCLC; details: 3 mg/kg dose, cited from earlier work
[11] = tested on: metastatic squamous cell NSCLC; details: CA209063, 117 patients; cited from earlier work
[12] = monotherapy 3 mg/kg every 2 weeks, n=52
[13] = dose 3 (mg/kg), NSCLC subjects, estimated

Sequence of PD-1 (Q15116 25-288): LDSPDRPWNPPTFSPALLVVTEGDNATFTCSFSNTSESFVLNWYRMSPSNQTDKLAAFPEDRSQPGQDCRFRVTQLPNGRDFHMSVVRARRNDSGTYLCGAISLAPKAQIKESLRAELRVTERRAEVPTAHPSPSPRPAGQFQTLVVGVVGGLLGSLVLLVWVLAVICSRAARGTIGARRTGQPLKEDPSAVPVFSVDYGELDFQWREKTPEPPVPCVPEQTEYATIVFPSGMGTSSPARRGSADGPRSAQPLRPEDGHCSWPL

Compound: CC(=O)O[C@@]12CO[C@@H]1C[C@H](O)[C@@]1(C)C(=O)[C@H](O)C3=C(C)[C@@H](OC(=O)[C@H](O)[C@@H](NC(=O)OC(C)(C)C)c4ccccc4)C[C@@](O)([C@@H](OC(=O)c4ccccc4)[C@H]21)C3(C)C [docetaxel, reference compound]
- median overall survival (OS) ([1]; CA209017): 6 months
- patients with a Grade 3-5 treatment-related event ([1]; CA209017): Fifty-seven
- treatment-related deaths (grade 5 event) ([1]; CA209017): 3
- historical ORR ([2]; second-line): 8-10%
- historical median PFS ([2]; second-line): approximately 3 months

Compound: Nc1nc2[nH]cc(CCc3ccc(C(=O)N[C@@H](CCC(=O)O)C(=O)O)cc3)c2c(=O)[nH]1 [pemetrexed]
- median OS with maintenance therapy [2]: ~13.9 month

Compound: bevacizumab: monoclonal antibody that blocks vascular endothelial growth factor A (VEGF-A)
- median OS with maintenance therapy [2]: ~13.9 month

Compound: gemcitabine/cisplatin
- alopecia, all grades ([2]; human, in vivo): 21%
- fatigue, Grade 3/4 ([2]; human, in vivo): 5%
- febrile neutropenia, Grade 3/4 ([2]; human, in vivo): 4%
- rate of Grade 3/4 anemia ([2]; human, in vivo): 10%
- rate of Grade 3/4 neutropenia ([2]; human, in vivo): 27%
- rate of Grade 3/4 thrombocytopenia ([2]; human, in vivo): 13%
- vomiting, Grade 3/4 ([2]; human, in vivo): 6%

Compound: ipilimumab: fully human, IgG1 monoclonal antibody that blocks the binding of CTLA-4 to its B7 ligands
- drug related hypersensitivity events (Grade 1-2) ([3]; 0.3 mg/kg group): 1.4%
- drug-related hypersensitivity events ([3]; 3 mg/kg group): no drug-related hypersensitivity events
- drug related hypersensitivity events (Grade 1-2) ([3]; 10 mg/kg group): 2.8%
- Grade 3-4 drug-related hypersensitivity events ([3]; across the 3 treatment groups): no Grade 3-4 drug-related hypersensitivity events

Compound: nivolumab
- PFS rate at 24 weeks ([4]; PD-L1+ tumors): 40%
- disease control rate (DCR, CR+PR+SD) ([4]; PD-L1+ tumors): 54%
- median OS ([4]; PD-L1+ tumors): 19.1 months
- overall response rate (ORR) ([4]; PD-L1+ tumors (IHC >= 5%)): 31%
- PFS rate at 24 weeks ([4]; PD-L1− tumors): 45%
- disease control rate (DCR, CR+PR+SD) ([4]; PD-L1− tumors): 50%
- median OS ([4]; PD-L1− tumors): not reached
- overall response rate (ORR) ([4]; PD-L1− tumors): 15%
- OS rate at 12 months [4, 12]: 74%
- PFS rate at 24 weeks [4, 12]: 41%
- disease control rate (DCR) [4, 12]: 50%
- median PFS [4, 12]: 16 weeks
- median overall survival (OS) [4, 12]: 22.6 months
- overall response rate (ORR) [4, 12]: 23%
- mean PD-1 occupancy rate [5]: 85%
- mean plateau occupancy [5]: 72%
- IFN-7 secretion from CMV specific memory T cells [6]: augmented IFN-7 secretion
- objective response rates [7]: ~25%
- progression-free survival (PFS) rate at 24 weeks [7]: ~45%
- coefficient of variation (cv %) of exposure greater than that of 3 mg/kg dosing ([8]; 240 mg flat vs 3 mg/kg): < 10%
- geometric mean Cminss, Cmaxss and Cavgss with flat dosing higher than with 3 mg/kg ([8]; 240 mg flat vs 3 mg/kg): < 15%
- PK in global and Japanese subjects ([8]; comparison of PK parameters): similar
- Cavgss Geo. Mean [8, 13]: 73.3 (35.6)
- Cmaxss Geo. Mean [8, 13]: 118.9 (31.8)
- Cminss Geo. Mean [8, 13]: 54.7 (41.9)
- PK linearity ([8]; dose range of 0.1 to 10 mg/kg, dose proportional exposures): linear
- Cavgss Geo. Mean ([8]; flat dose 240 (mg), predicted): 82.4 (38.2)
- Cmaxss Geo. Mean ([8]; flat dose 240 (mg), predicted): 133.7 (35.0)
- Cminss Geo. Mean ([8]; flat dose 240 (mg), predicted): 61.5 (44.6)
- half-life ([8]; in vivo): up to 25 days
- safety and tolerability ([9]; Japanese subjects): safe and well tolerated
- dose achieved without reaching the maximum tolerated dose (MTD) ([9]; monotherapy, every two weeks): > 10 mg/kg
- safety and tolerability ([9]; up to a dose level of 10 mg/kg): safe and well tolerated
- HR for overall survival vs docetaxel ([1]; CA209017): 0.59
- median overall survival (OS) ([1]; CA209017): 9.6 months
- treatment-related deaths (grade 5 event) ([1]; CA209017): none
- patients with a Grade 3-5 treatment-related event ([1]; in vivo): 6.9%
- 24-week PFS rate ([10]; non-squamous): 42%
- objective response rate (ORR) ([10]; non-squamous): 26%
- 24-week PFS rate ([10]; squamous): 45%
- objective response rate (ORR) ([10]; squamous): 22%
- overall response rate (ORR) [11]: 15%

Compound: paclitaxel/carboplatin
- arthralgia, Grade 3/4 ([2]; human, in vivo): 6%
- fatigue, Grade 3/4 ([2]; human, in vivo): 5%
- febrile neutropenia, Grade 3/4 ([2]; human, in vivo): 3%
- neuropathy, Grade 2/3 ([2]; human, in vivo): 18%
